From patent US20180059115A1, “METHODS FOR MONITORING POLYMORPHONUCLEAR MYELOID DERIVED SUPPRESSOR CELLS, AND COMPOSITIONS AND METHODS OF TREATMENT OF CANCER” (The Wistar Institute of Anatomy and Biology, priority 2016, published 2018)
Entries after “also recorded” stand apart in the source; their conditions may differ.

What was measured:
[1] = test system: PMN isolated from healthy donors; assay: In vitro PMN LOX-1 induction by ER stress inducers, LOX-1 by flow cytometry; format: cell-based, human; details: overnight with GM-CSF, THG 1 μM, DTT 1 mM
Experimental: (§1) PMNs from healthy donors were isolated on a Histopaque gradient. 5×10^5 cells/ml were cultured for 12 hrs with 10 ng/ml of GM-CSF in the presence of dithiothreitol (DTT) (0.5, 1, 2 mM; Sigma), tunicamycin (0.5, 1, and 2 μg/ml; Sigma-Aldrich), or thapsigargin (0.5, 1, and 2 μM; Sigma). In some instances, 20 μM of the XBP-1 inhibitor BIO9 was added 3 hours prior to culture. Cells were then stained for flow cytometry or used for functional assays as described above.
Flow cytometry data were acquired using a BD LSR II flow cytometer and analyzed using FlowJo software (Tree Star) Immunofluorescent microscopy: Following deparaffinization and rehydration, heat induced antigen retrieval was performed using Tris-EDTA buffer pH 9. Followed by blocking with 5% BSA, tissues were stained with Lox1 antibody (Abcam; Cat no ab126538) and CD15 antibody (BD biosciences; Cat no 555400) at 1:200 dilution in 5% BSA each for 1 hour at room temperature. The following secondary antibodies were used Alexa Fluor anti-rabbit A647 (1:200 dilution in 5% BSA, Life technologies) for Lox1 and anti-mouse A514 (1:400 dilution in 5% BSA, Life technologies) for CD15 staining. CD15 staining was pseudo colored red and Lox1 staining was pseudo colored green. Nucleus was stained using DAPI (1:5000 dilution in PBS, Life technologies). Images were obtained using Leica TCS SP5 Confocal microscope. […]

[2] = test system: T lymphocytes; assay: Three-way allogeneic MLR suppression assay (thymidine incorporation); format: cell-based, human; details: 1 μM NAC, 1000 U/ml catalase, 20 μM Nor-NOHA, 1:2 PMN:T cell ratio
Description: Whole blood was enriched for PMNs using MACSxpress® Neutrophil Isolation Kit (Miltenyi) following the protocol provided by the manufacturer. Cells were then labeled with anti-Lox1-PE mAb (Biolegend) and then separated using anti-PE beads and MACS column (Miltenyi). For the three-way allogenic MLR suppression assay, T lymphocytes from one healthy donor were purified using the Human CD3+ T Cell Enrichment Column Kit (R&D Systems) and used as responder cells. Dendritic cells were generated from adherent monocytes from another healthy donor in the presence of 25 ng/mL GM-CSF and 25 ng/mL IL-4 (Peprotech) for 6 days and used as stimulator cells. Responder and stimulator cells were then mixed at a 10:1 ratio followed by the addition of Lox1+ or Lox1− PMNs. T lymphocyte proliferation was assessed after 5 days of culture by thymidine incorporation.
In some experiments, 1 μM N-acetyl cysteine (NAC; Sigma) or 20 μM of Nω-hydroxy-norarginine (nor-NOHA; Cayman Chemical) was added to the culture media to block ROS or agrinase I activity, respectively. T lymphocyte proliferation was assessed after 5 days of culture by thymidine incorporation.

[3] = test system: T lymphocytes; assay: CD3/CD28 induced T-cell proliferation suppression assay (3H-thymidine uptake); format: cell-based, human; details: healthy donor PMN treated overnight with 1 μM THG, washed
Experimental: Concurrently, T-lymphocytes were isolated from the PBMC of the same patient as LOX-1+ PMN using human CD3+ T Cell Enrichment Column Kit. PMNs were plated at different ratios with […] T lymphocytes in a 96-well plate coated with 10 μg/ml anti-CD3 (clone UCHT1; BD Biosciences) followed by the addition of 1 μg/ml of soluble anti-CD28 (clone CD28.2; BD Biosciences). T lymphocyte proliferation was assessed after 3 days of culture by thymidine incorporation.
as §1

[4] = test system: PMN isolated from healthy donors; assay: LOX-1 expression in PMN treated with cytokines or tumor-cell conditioned medium; format: cell-based, human; details: healthy donor PMN, 24 hr culture, GM-CSF added; TCM 20% v/v
Experimental: FIGS. 11A and 11B show the mechanism regulating LOX-1 expression on PMN-MDSC, specifically the percentage of LOX-1+ PMN (FIG. 11A) and expression of LOX-1 (FIG. 11B) in PMN isolated from 4 healthy donors and treated with indicated cytokines. Range of concentrations based on reported data were tested and only one for each cytokine is shown. Conditioned medium from PCI30 tumor cells (TCM) was used at 20% v/v concentration. Mean and SD are shown.
What could induce LOX-1 up-regulation in PMN-MDSC? Based on the fact that in endothelial cells LOX-1 can be induced by pro-inflammatory cytokines^35, we tested the effect of several cytokines as well as tumor-cell conditioned medium (TCM) on LOX-1 expression in PMN isolated from healthy donors. None of the tested pro-inflammatory cytokines (IL-1β, TNFα, IL-6) or TCM induced upregulation of LOX-1 in PMN after 24 hr culture (GM-CSF was added to protect PMN viability) (FIGS. 11A and 11B).

[5] = test system: hepatic L02 cells; details: cited from earlier work

Row | Molecule | effect on LOX-expression in PMN / immune suppressive activity of LOX-1+ PMN-MDSC [2] | upregulation of LOX-1 in PMN [4] | further results
1 | O[C@H](CS)[C@H](O)CS (racemic) [DTT, dithiothreitol] | – | – | LOX-1 expression in PMN [1]: dramatic up-regulation of LOX-1 expression
2 | CC(=O)N[C@@H](CS)C(=O)O [NAC, N-acetylcysteine] | substantially decreased LOX-expression | – | –
3 | N=C(NO)NCC[C@H](N)C(=O)O [Nor-NOHA, Nω-hydroxy-norarginine] | substantially decreased LOX-expression | – | –
4 | C/C=C(/C)C(=O)O[C@H]1C(C)=C2[C@H]([C@@H]1OC(=O)CCCCCCC)[C@@](C)(OC(C)=O)C[C@H](OC(=O)CCC)[C@@]1(O)[C@H]2OC(=O)[C@@]1(C)O [THG, thapsigargin] | – | – | LOX-1 expression in PMN [1]: dramatic up-regulation of LOX-1 expression; immune suppressive activity of treated PMN (T-cell proliferation) [3]: caused acquisition of potent immune suppressive activity; also recorded: converted PMN to PMN-MDSC
5 | IL-1β: pro-inflammatory cytokine | – | None | –
6 | IL-6: pro-inflammatory cytokine | – | None | –
7 | TNFα | – | None | –
8 | catalase | substantially decreased LOX-expression | – | –
9 | tunicamycin | – | – | LOX-1 expression under ER stress [5]: caused down-regulation of LOX-1
